ChEMBL document CHEMBL1201862, “PubChem BioAssay data set” (2004)
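1) Cells in 96-well plates. 2) Compound, 48 h, 5 concentrations. 3) Linear interpolation between surrounding doses. 4) Unreached endpoint = highest concentration. The concentration for 50% growth inhibition is given as GI50.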 Active and inactive are the calls of the source. No stated cut-off is given here; in the data, active = GI50 up to about 1.1 µM and inactive = higher.

Tests used:
Test in all cases: inhibition of tumour cell growth, NCI panel, 48 h
[1] = tested on: HOP-92
[2] = tested on: A498
[3] = tested on: OVCAR-5
[4] = tested on: Malme-3M
[5] = tested on: KM12
[6] = tested on: HCT-116
[7] = tested on: HCT-15
[8] = tested on: MOLT-4
[9] = tested on: NCI-H522
[10] = tested on: RPMI-8226
[11] = tested on: SF-268
[12] = tested on: SR
[13] = tested on: CAKI-1
[14] = tested on: IGROV-1
[15] = tested on: UACC-257
[16] = tested on: TK-10
[17] = tested on: HOP-62
[18] = tested on: HL-60

Row | Structure (SMILES) | GI50 [1] | GI50 [2] | GI50 [3] | GI50 [4] | GI50 [5] | GI50 [6] | GI50 [7] [µM] | GI50 [8] | GI50 [9] | GI50 [10] | GI50 [11] | GI50 [12] | GI50 [13] | GI50 [14] | GI50 [15] | GI50 [16] | GI50 [17] | GI50 [18]
1 | CC(C)NCC(O)c1ccc(OCc2ccccc2)c(OCc2ccccc2)c1-c1ccccc1 (stereo not given) | 2.62 µM (inactive) | 2.49 µM (inactive) | 1.77 µM (inactive) | 1.77 µM (inactive) | 2.16 µM (inactive) | 1.79 µM (inactive) | 1.82 | 2.05 µM (inactive) | 1.65 µM (inactive) | 2.51 µM (inactive) | 2.93 µM (inactive) | 2.68 µM (inactive) | 1.76 µM (inactive) | 1.41 µM (inactive) | 1.88 µM (inactive) | 2.35 µM (inactive) | 1.79 µM (inactive) | –
2 | O=C(Cc1ccccc1)NNc1nc(NNC(=O)c2ccncc2)nc(Nc2ccc([N+](=O)[O-])cc2)n1 | > 10 µM (inactive) | > 10 µM (inactive) | > 10 µM (inactive) | > 10 µM (inactive) | > 10 µM (inactive) | > 10 µM (inactive) | 6.22 | > 10 µM (inactive) | > 10 µM (inactive) | > 10 µM (inactive) | > 10 µM (inactive) | > 10 µM (inactive) | > 10 µM (inactive) | > 10 µM (inactive) | 5.69 µM (inactive) | > 10 µM (inactive) | > 10 µM (inactive) | –
3 | C[C@H](NC(=O)C(C)(Cc1ccc(O)cn1)NC(=O)c1ccccc1)c1ccccc1 (stereo not given in full) | > 100 µM (inactive) | > 100 µM (inactive) | > 100 µM (inactive) | > 100 µM (inactive) | > 100 µM (inactive) | > 100 µM (inactive) | > 100 | > 100 µM (inactive) | > 100 µM (inactive) | > 100 µM (inactive) | > 100 µM (inactive) | – | > 100 µM (inactive) | > 100 µM (inactive) | > 100 µM (inactive) | > 100 µM (inactive) | > 100 µM (inactive) | > 100 µM (inactive)
4 | CSc1nc(C)c2c(n1)N(c1ccc(Cl)cc1)CC2 | > 100 µM (inactive) | > 100 µM (inactive) | > 100 µM (inactive) | > 100 µM (inactive) | > 100 µM (inactive) | > 100 µM (inactive) | > 100 | > 100 µM (inactive) | > 100 µM (inactive) | > 100 µM (inactive) | > 100 µM (inactive) | > 100 µM (inactive) | > 100 µM (inactive) | > 100 µM (inactive) | > 100 µM (inactive) | > 100 µM (inactive) | > 100 µM (inactive) | –
5 | COc1ccc(-c2cc(-c3ccc(Cl)cc3)n(C3OC(CO)C(O)C(O)C3O)c(=S)c2C#N)cc1 (stereo not given) | > 100 µM (inactive) | – | 33 µM (inactive) | – | 49.9 µM (inactive) | 34.2 µM (inactive) | 38.5 | 5.79 µM (inactive) | – | 30.5 µM (inactive) | 20.6 µM (inactive) | 42.9 µM (inactive) | – | 26.5 µM (inactive) | 47.8 µM (inactive) | 30.3 µM (inactive) | 57.8 µM (inactive) | –
6 | CCC1C(NC(=O)OC)C(=O)N1[C@@H](C)c1ccccc1 (stereo not given in full) | > 100 µM (inactive) | > 100 µM (inactive) | > 100 µM (inactive) | > 100 µM (inactive) | > 100 µM (inactive) | > 100 µM (inactive) | > 100 | > 100 µM (inactive) | > 100 µM (inactive) | > 100 µM (inactive) | > 100 µM (inactive) | > 100 µM (inactive) | > 100 µM (inactive) | > 100 µM (inactive) | > 100 µM (inactive) | > 100 µM (inactive) | > 100 µM (inactive) | –
7 | COc1ccc(C(=C(Cl)c2ccccc2)c2ccc(OC)cc2)cc1 | > 100 µM (inactive) | > 100 µM (inactive) | > 100 µM (inactive) | > 100 µM (inactive) | > 100 µM (inactive) | 48.1 µM (inactive) | > 100 | > 100 µM (inactive) | 84.3 µM (inactive) | 35.1 µM (inactive) | > 100 µM (inactive) | – | > 100 µM (inactive) | > 100 µM (inactive) | 86.5 µM (inactive) | > 100 µM (inactive) | > 100 µM (inactive) | 57.8 µM (inactive)
8 | COc1c(OC(C)C)c(OC(C)C)c2oc(=O)n3c2c1C(c1ccccc1-n1c(C)ccc1C)C=C3 (stereo not given) | 53.7 µM (inactive) | 92.5 µM (inactive) | > 100 µM (inactive) | 13 µM (inactive) | 22.9 µM (inactive) | 16.7 µM (inactive) | 61.8 | 42.5 µM (inactive) | 26.7 µM (inactive) | 64.6 µM (inactive) | 38.1 µM (inactive) | – | > 100 µM (inactive) | 39.9 µM (inactive) | 45 µM (inactive) | > 100 µM (inactive) | 30.5 µM (inactive) | > 100 µM (inactive)
9 | O=c1[nH]nc(-c2ccccc2)c(-c2ccccc2)c1-n1nc(-c2ccccc2)c2ccccc2c1=O | 75.5 µM (inactive) | > 100 µM (inactive) | > 100 µM (inactive) | > 100 µM (inactive) | 65.8 µM (inactive) | 83.9 µM (inactive) | 78 | 17 µM (inactive) | 34 µM (inactive) | 32 µM (inactive) | > 100 µM (inactive) | 52.1 µM (inactive) | > 100 µM (inactive) | > 100 µM (inactive) | > 100 µM (inactive) | > 100 µM (inactive) | > 100 µM (inactive) | –
10 | COC(=O)[C@]1(Cc2ccc3ccccc3c2)CCCCCCN1C(=O)c1ccccc1 | > 38.5 µM (inactive) | > 36.1 µM (inactive) | > 38 µM (inactive) | > 38.5 µM (inactive) | > 34.1 µM (inactive) | > 25.4 µM (inactive) | > 31.8 | > 21.3 µM (inactive) | – | 4.15 µM (inactive) | > 33.8 µM (inactive) | > 100 µM (inactive) | – | > 37.8 µM (inactive) | 12.5 µM (inactive) | > 36.6 µM (inactive) | > 30.1 µM (inactive) | –
11 | O=C1NC(=O)C2(CCC(O)C2)c2cc[n+]([O-])cc21 (stereo not given) | > 100 µM (inactive) | > 100 µM (inactive) | > 100 µM (inactive) | > 100 µM (inactive) | > 100 µM (inactive) | > 100 µM (inactive) | > 100 | > 100 µM (inactive) | > 100 µM (inactive) | > 100 µM (inactive) | > 100 µM (inactive) | > 100 µM (inactive) | > 100 µM (inactive) | > 100 µM (inactive) | > 100 µM (inactive) | > 100 µM (inactive) | > 100 µM (inactive) | –
12 | COc1cc(O)c(C(C)=O)c(O)c1 | 25 µM (inactive) | 80.5 µM (inactive) | > 100 µM (inactive) | > 100 µM (inactive) | > 100 µM (inactive) | 55 µM (inactive) | 76.7 | – | 43.1 µM (inactive) | – | 69.8 µM (inactive) | 36.3 µM (inactive) | – | 77.3 µM (inactive) | > 100 µM (inactive) | > 100 µM (inactive) | > 100 µM (inactive) | –
